The record followed here is patent US20090075978A1, “SUBSTITUTED PROPIOLIC ACID AMIDES AND THEIR USE FOR PRODUCING DRUGS” (Grunenthal GmbH, priority 2005, published 2009).

The target in one assay is T1, mGluR5 receptor (human) (Homo sapiens, UniProt P41594).
T1 construct: host or cells: CHO cells (CHO-hmGluR5), expression induced with doxycycline
The assay is described as follows: Functional Ca2+ influx assay in the mGluR5 receptor assay (CHO-hmGluR5 cells, DHPG). As to conditions: 10 μM DHPG, Ki=IC50/(1+(AGconc/EC50)). It counts as cell-based. From the text:
II. Method for Determining Ca^2+ Influx in the mGluR5 Receptor Assay
An agonistic and/or antagonistic substance action on the mGluR5 receptor of the rat species may be determined with the following assay. According to this assay, intracellular Ca^2+ release is quantified after activation of the mGluR5 receptor with the assistance of a Ca^2+-sensitive dye (type Fluo-4, Molecular Probes Europe BV, Leiden, Netherlands) in a FlexStation (Molecular Devices, Sunnyvale, USA).
Description of the Functional Ca^2+ Influx Assay
20,000 CHO-hmGluR5 cells/well (Euroscreen, Gosselies, Belgium) are pipetted out into 96 well plates (BD Biosciences, Heidelberg, Germany, Ref. 356640, clear bottom, 96 well, poly-D-lysine) and incubated overnight in HBSS buffer (Gibco No. 14025-050) with the following additives: 10% FCS (GIBCO, 10270-106) and doxycycline (BD Biosciences Clontech 631311 600 ng/ml).
For the purpose of functional investigation, the cells were loaded with 2 μM Fluo-4 and 0.01 vol. % Pluronic F127 (Molecular Probes Europe BV, Leiden, Netherlands) in HBSS buffer (Hank's buffered saline solution, Gibco Invitrogen GmbH, Karlsruhe, Germany) with Probenicid (Sigma P8761, 0.69 mg/ml) for 30 min at 37° C.
The cells are then washed 3 times with washing buffer (HBSS buffer, Gibco No. 14025-050, with Probenicid (Sigma P8761, 0.69 [mg]/ml) and then resuspended with the same buffer to make up to 100 μl. After 15 min the plates are transferred for determination of Ca^2+ measurements in the presence of DHPG ((S)-3,5-dihydroxyphenylglycine, Tocris Biotrend Chemikalien GmbH, Cologne, Germany, final DHPG concentration: 10 μM) and in the presence or absence of test substances into a FLuorometric Imaging Plate Reader (FLIPR, Molecular Devices, Sunnyvale, Calif.).
Ca^2+-dependent fluorescence is measured before and after addition of test substances. Quantification proceeds by measuring the highest fluorescence intensity over time.
After recording a fluorescence baseline for 10 s, 50 μl of test substance solution (various test substance concentrations in HBSS buffer with 1% DMSO and 0.02% Tween 20, Sigma) are added and the fluorescence signal is measured for 6 min. Then, 50 μl of DHPG solution ((S)-3,5-dihydroxyphenylglycine, Tocris Biotrend Chemikalien GmbH, Cologne, Germany, final DHPG concentration: 10 μM) are added and Ca^2+ influx is simultaneously measured for 60 s. The final DMSO concentration amounts to 0.25% and the final Tween 20 content amounts to 0.005%. The data are analysed with Microsoft Excel and GraphPad Prism. The dose-response curves are calculated with non-linear regression and IC50 values are determined. Each data point is determined in triplicate and IC50 values are averaged from a minimum of 2 independent measurements.
Ki values are calculated using the following formula: Ki=IC50/(1+(AGconc/EC50)).
AGconc=10 μM; EC50 corresponds to the DHPG concentration which is necessary for the semimaximal influx of Ca^2+.

For another assay, the target named is T2, mGluR5 receptor (pig) (Sus scrofa, UniProt I3LUI7).
T2 construct: 450 μg of protein from brain homogenate is incubated; from tissue; host or cells: pig brain hemispheres without medulla, cerebellum and pons
T2 sequence (I3LUI7 19-1212): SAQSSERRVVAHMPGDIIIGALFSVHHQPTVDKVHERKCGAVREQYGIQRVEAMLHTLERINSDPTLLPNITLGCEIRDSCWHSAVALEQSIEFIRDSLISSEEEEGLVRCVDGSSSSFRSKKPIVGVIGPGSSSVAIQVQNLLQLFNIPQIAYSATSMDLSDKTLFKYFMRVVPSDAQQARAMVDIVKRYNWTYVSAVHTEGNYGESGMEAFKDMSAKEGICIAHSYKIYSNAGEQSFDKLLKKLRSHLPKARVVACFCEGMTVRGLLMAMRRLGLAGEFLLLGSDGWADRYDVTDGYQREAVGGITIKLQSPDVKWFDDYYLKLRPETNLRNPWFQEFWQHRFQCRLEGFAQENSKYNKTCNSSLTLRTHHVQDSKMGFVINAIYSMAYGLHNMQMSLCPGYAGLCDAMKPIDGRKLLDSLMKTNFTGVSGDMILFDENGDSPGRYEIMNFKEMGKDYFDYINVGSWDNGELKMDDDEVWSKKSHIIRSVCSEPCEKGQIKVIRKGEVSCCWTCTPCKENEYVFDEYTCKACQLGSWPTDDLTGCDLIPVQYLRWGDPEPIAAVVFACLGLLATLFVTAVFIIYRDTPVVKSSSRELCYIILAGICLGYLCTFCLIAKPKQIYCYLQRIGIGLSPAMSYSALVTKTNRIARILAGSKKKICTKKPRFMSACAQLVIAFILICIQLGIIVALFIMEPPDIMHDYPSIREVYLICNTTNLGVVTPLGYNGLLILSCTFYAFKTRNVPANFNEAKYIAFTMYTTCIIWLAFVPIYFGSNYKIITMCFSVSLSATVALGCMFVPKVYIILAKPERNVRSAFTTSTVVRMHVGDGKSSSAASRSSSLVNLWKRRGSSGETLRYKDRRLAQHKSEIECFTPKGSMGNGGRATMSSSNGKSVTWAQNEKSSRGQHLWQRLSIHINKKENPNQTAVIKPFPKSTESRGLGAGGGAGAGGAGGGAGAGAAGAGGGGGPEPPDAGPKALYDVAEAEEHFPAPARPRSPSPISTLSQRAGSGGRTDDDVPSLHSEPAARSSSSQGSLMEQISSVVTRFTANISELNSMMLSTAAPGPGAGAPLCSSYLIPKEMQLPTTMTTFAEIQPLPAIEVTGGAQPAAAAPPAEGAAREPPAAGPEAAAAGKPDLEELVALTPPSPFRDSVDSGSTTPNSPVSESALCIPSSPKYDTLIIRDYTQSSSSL
Nature of the assay: [3H]-MPEP binding in the mGluR5 receptor binding assay (pig brain homogenate). The settings on record: 5 nM [3H]-MPEP; for IC50: pig brain homogenate. As to the method:
I. Method for Determining the Inhibition of [^3H]-MPEP Binding in the mGluR5 Receptor Binding Assay
Pig brain homogenate is produced by homogenisation (Polytron Pt 3000, Kinematica AG, 10,000 revolutions per minute for 90 seconds) of pig brain hemispheres without medulla, cerebellum and pons in a buffer of pH 8.0 (30 mM Hepes, Sigma, order number H3375+1 tablet Complete Roche Diagnostics, order number 1836145 made up to 100 ml) in a ratio of 1:20 (brain weight/volume) and differential centrifugation at 900×g and 40,000×g. 450 μg of protein from brain homogenate is incubated in each case in 250 μl incubation batches in 96-well microtitre plates with 5 nM ^3[H]-MPEP (Tocris, order number R1212) (MPEP=[…]) and the compounds to be investigated ([…]) in the buffer (as above) at room temperature for 60 min.
The batches are then filtered with the assistance of a Brandel Cell Harvester (Brandel, Robotic 9600 model) on Unifilter plates with glass filter mats (Perkin Elmer, order number 6005177) and then washed 3 times with buffer (as above) using 250 μl per sample. The filter plates are then dried for 60 min at 55° C. Then 30 μl of Ultima Gold™ scintillating material (Packard BioScience, order number 6013159) is added per well and after 3 hours the samples are measured using the β counter (Microbeta, Perkin Elmer). Nonspecific binding is determined by the addition of 10 μM MPEP (Tocris, order number 1212).

In another assay the test system is pain response in rats. The assay is described as follows: Formaldehyde test in rats (phase 2, chronic pain component). Format: in vivo. As to the method: III. Formaldehyde Test in Rats:
The formaldehyde test (Dubuisson, D. and Dennis, S. G., 1977, Pain, 4, 161-174) is a model of acute and chronic pain. A biphasic nociceptive response is induced in freely mobile test animals by a single formaldehyde injection into the dorsal side of a hind paw, said response being detected by the observation of three clearly distinguishable behaviour patterns. The response is in two phases: phase 1=immediate response (duration up to 10 min; paw shaking, licking), phase 2=late response (after a resting phase; likewise paw shaking, licking; duration up to 60 min). […] In the investigations presented here, it was the chronic pain component (phase 2) which was evaluated.
Formaldehyde is administered subcutaneously in a volume of 50 μl and a concentration of 5% into the dorsal side of the right hind paw of each animal. […] The specific behavioural changes, such as raising and shaking the paw, changes in weight bearing of the animal and biting and licking responses are observed and recorded over the observation period of 21 to 27 min after the formaldehyde injection. The various behaviours are summarised as a “pain rate” (PR), which is the calculated nociceptive response averaged over 3 min sub-intervals. […]

[1] abbreviates: 10 μM test compound, 450 μg protein from pig brain homogenate, 60 min, room temperature.

T1 sequence (P41594 21-1212): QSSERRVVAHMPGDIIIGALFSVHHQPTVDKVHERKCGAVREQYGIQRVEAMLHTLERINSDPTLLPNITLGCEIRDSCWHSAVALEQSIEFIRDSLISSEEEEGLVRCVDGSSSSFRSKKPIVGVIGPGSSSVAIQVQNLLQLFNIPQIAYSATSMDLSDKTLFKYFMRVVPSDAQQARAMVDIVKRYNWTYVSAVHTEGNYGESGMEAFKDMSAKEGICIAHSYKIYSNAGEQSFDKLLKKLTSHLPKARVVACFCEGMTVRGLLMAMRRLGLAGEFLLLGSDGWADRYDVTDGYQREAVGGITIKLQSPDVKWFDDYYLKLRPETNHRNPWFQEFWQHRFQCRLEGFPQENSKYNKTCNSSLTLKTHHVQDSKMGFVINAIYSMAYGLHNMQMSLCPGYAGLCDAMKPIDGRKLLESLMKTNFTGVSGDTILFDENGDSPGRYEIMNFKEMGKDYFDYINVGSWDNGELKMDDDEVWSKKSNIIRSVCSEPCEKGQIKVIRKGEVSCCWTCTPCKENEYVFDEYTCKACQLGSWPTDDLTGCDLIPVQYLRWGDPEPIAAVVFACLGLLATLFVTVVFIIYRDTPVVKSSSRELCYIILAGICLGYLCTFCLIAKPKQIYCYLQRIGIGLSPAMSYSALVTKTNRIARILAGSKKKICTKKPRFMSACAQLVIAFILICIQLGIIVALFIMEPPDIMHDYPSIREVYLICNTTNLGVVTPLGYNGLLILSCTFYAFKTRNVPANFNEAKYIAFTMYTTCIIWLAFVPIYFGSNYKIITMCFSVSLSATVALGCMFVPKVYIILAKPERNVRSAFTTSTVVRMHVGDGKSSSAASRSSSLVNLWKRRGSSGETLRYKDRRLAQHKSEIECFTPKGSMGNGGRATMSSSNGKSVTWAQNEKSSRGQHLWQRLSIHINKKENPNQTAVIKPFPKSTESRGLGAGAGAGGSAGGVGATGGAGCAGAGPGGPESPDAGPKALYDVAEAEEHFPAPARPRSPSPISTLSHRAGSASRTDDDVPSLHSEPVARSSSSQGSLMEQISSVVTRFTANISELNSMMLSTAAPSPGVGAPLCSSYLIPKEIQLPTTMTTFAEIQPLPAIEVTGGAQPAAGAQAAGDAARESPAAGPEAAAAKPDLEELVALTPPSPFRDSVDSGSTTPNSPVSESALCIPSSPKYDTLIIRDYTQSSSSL

In the case of `O=C(C#Cc1cccc(Cl)c1)N1CCc2ccccc2CC1` [Example 12, 3-(3-(3-chlorophenyl)-propiolyl)-1,2,4,5-tetrahydrobenzo[d]azepine], on mGluR5 receptor (human), affinity was put at a Ki of 0.3 nM. Moreover, the IC50 at mGluR5 receptor (pig) stood at 23 nM. The compound `CC1c2ccccc2CCN1C(=O)C#Cc1cccc(Cl)c1` (stereo not drawn) [Example 18, 2-(3-(3-chlorophenyl)-propiolyl)-1-methyl-1,2,3,4-tetrahydro-isoquinoline] gave an inhibition constant (Ki) on mGluR5 receptor (human) of 1.2 nM. Further, the IC50 on mGluR5 receptor (pig) worked out at 5.4 nM. For the same compound, the median effective dose (ED50) in the assay with pain response in rats (iv, rat, i.v., 30 min before formaldehyde) stood at 1.06 mg/kg. For the same compound, in the assay with pain response in rats (per os, 10 mg/kg), the “Formaldehyde test (rat) per os Reduction in nociceptive behaviour relative to control at 10 mg/kg [%]” value is given as 41%.

With `O=C(C#Cc1cccc(Cl)c1)N1CCc2ccccc2C1` [Example 5, 2-(3-(3-chlorophenyl)-propiolyl)-1,2,3,4-tetrahydro-isoquinoline], affinity at mGluR5 receptor (human) was put at a Ki of 1 nM. On mGluR5 receptor (pig), this compound gave an IC50 of 23 nM. In the case of `COc1cccc2c1CCN(C(=O)C#Cc1cccc(Cl)c1)C2` [Example 30, 2-(3-(3-chlorophenyl)-propiolyl)-5-methoxy-1,2,3,4-tetrahydro-isoquinoline], the inhibition constant (Ki) on mGluR5 receptor (human) amounted to 0.9 nM. Further, the 50% inhibitory concentration (IC50) at mGluR5 receptor (pig) was 1.5 nM.

Turning to `CC1Cc2ccccc2CN1C(=O)C#Cc1cccc(Cl)c1` (stereo not drawn) [Example 19, 2-(3-(3-chlorophenyl)-propiolyl)-3-methyl-1,2,3,4-tetrahydro-isoquinoline], on mGluR5 receptor (human), the affinity corresponds to a Ki of 4.9 nM. This compound also came in with a 50% inhibitory concentration (IC50) at mGluR5 receptor (pig) of 53 nM. Consider `O=C(C#Cc1ccccc1)N1CCc2ccccc2C1` [Example 1, 2-(3-phenyl-propiolyl)-1,2,3,4-tetrahydro-isoquinoline], for which the affinity at mGluR5 receptor (human), expressed as Ki, was 11.5 nM. The compound further displayed an IC50 at mGluR5 receptor (pig) of 180 nM. On mGluR5 receptor (pig), `O=C(C#Cc1cccc(Cl)c1)N1CCn2ccnc2C1` [Example 23, 7-(3-(3-chlorophenyl)-propiolyl)-5,6,7,8-tetrahydroimidazo[1,2-a]pyrazine] showed a concentration for half-maximal inhibition (IC50) of 320 nM. Same read-out and setting: the result for `O=C(C#Cc1ccccn1)N1CCc2ccccc2C1` [Example 7, 2-(3-pyrid-2-yl-propiolyl)-1,2,3,4-tetrahydro-isoquinoline] reads 8570 nM.

On to `COc1ccc2c(c1)CCN(C(=O)C#Cc1ccccc1)C2` [Example 14, 6-methoxy-2-(3-phenyl-propiolyl)-1,2,3,4-tetrahydro-isoquinoline], for which the IC50 at mGluR5 receptor (pig) came to 3100 nM. As to `Cc1ccc(C#CC(=O)N2CCCc3ccccc32)cc1` [Example 57, 1-(3-(4-tolyl)-propiolyl)-1,2,3,4-tetrahydro-quinoline], the “mGluR5 receptor (pig) (10 μM) Inhibition (%)” value on mGluR5 receptor (pig) (setting [1]) came out at 18%.

`O=C(C#Cc1cccc(Cl)c1)N1CCc2cc(O)c(O)cc2C1` [Example 13, 2-(3-(3-chlorophenyl)-propiolyl)-7,6-dihydroxy-1,2,3,4-tetrahydro-isoquinoline] had an IC50 at mGluR5 receptor (pig) of 2540 nM. Still for that read-out and setting: the result for `Cc1cccc2c1C(C)N(C(=O)C#Cc1cccc(Cl)c1)CC2` (stereo not drawn) [Example 31, 2-(3-(3-chlorophenyl)-propiolyl)-1,8-dimethyl-1,2,3,4-tetrahydro-isoquinoline] reads 2.6 nM.

As for `O=C(C#Cc1ccccc1)N1CCn2cnnc2C1` [Example 10, 7-(3-phenyl-propiolyl)-5,6,7,8-tetrahydro-[1,2,4]triazolo[4,3-a]pyrazine], 10 µM produced 16% inhibition at mGluR5 receptor (pig) (setting [1]). On to `CC1Cc2ccccc2N1C(=O)C#Cc1ccccc1C(F)(F)F` (stereo not drawn) [Example 75, 1-(3-(2-trifluoromethylphenyl)-propiolyl)-2-methyl-indoline], for which the “mGluR5 receptor (pig) (10 μM) Inhibition (%)” value at mGluR5 receptor (pig) (setting [1]) is listed as 45%.

For the compound `O=C(C#Cc1ccccc1)N1CCc2ccccc21` [Example 3, 1-(3-phenyl-propiolyl)-2,3-dihydro-indole], at mGluR5 receptor (pig), the IC50 came to 7940 nM.

For `O=C(C#Cc1ccccc1F)N1CCc2ccccc2C1` [Example 37, 2-(3-(2-fluorophenyl)-propiolyl)-1,2,3,4-tetrahydro-isoquinoline], the “mGluR5 receptor (pig) (10 μM) Inhibition (%)” value on mGluR5 receptor (pig) (setting [1]) was determined as 83%. Take `O=C(C#Cc1ccc(F)cc1)N1CCc2ccccc2C1` [Example 64, 2-(3-(4-fluorophenyl)-propiolyl)-1,2,3,4-tetrahydro-isoquinoline]: on mGluR5 receptor (pig) (setting [1]), the “mGluR5 receptor (pig) (10 μM) Inhibition (%)” value amounted to 88%. On the same count and under the same terms, the result for `CC1Cc2ccccc2N1C(=O)C#Cc1cccc(Cl)c1` (stereo not drawn) [Example 66, 1-(3-(3-chlorophenyl)-propiolyl)-2-methyl-indoline] reads 70%; that for `Cc1cccc(C#CC(=O)N2c3ccccc3CC2C)c1C` (stereo not drawn) [Example 46, 1-(3-(2,3-dimethylphenyl)-propiolyl)-2-methyl-indoline], 18%. As for `O=C(C#Cc1ccccc1)N1CCCc2ccccc21` [Example 2, 1-(3-phenyl-propiolyl)-1,2,3,4-tetrahydro-quinoline], the IC50 on mGluR5 receptor (pig) was found to be 1750 nM. `N#Cc1cccc(C#CC(=O)N2CCc3ccccc3C2)c1` [Example 77, 2-(3-(3-cyano-phenyl)-propiolyl)-1,2,3,4-tetrahydro-isoquinoline]: the “mGluR5 receptor (pig) (10 μM) Inhibition (%)” value on mGluR5 receptor (pig) (setting [1]) turned out to be 90%. On mGluR5 receptor (pig), `COc1cc2c(cc1O)CCN(C(=O)C#Cc1cccc(Cl)c1)C2` [Example 16, 2-(3-(3-chlorophenyl)-propiolyl)-6-hydroxy-7-methoxy-1,2,3,4-tetrahydro-isoquinoline] yielded a concentration for half-maximal inhibition (IC50) of 720 nM.

Broadly, the Ki is the dissociation constant of the complex between target and ligand, obtained from inhibition or displacement. Low readings indicate tighter binding, high ones weaker binding. Usually IC50 stands for the point on the concentration scale where inhibition reaches its midpoint. One may read the ED50 as the dose at which the effect has come halfway, by size or by number of responders. Low readings indicate an effect at a small dose, high ones a need for a large dose. For orientation: inhibition means the share of the control response that was lost under treatment. Lower therefore signals a weak effect.
